For data set [1], the system named is chitinase from Candida albicans. The data set is described as follows: Assay for chitinase inhibitory activity, chitinase from Candida albicans (4MBTC fluorescence). As to conditions: for Chitinase Inhibitory Activity IC50, C. albicans: bis-Tris buffer pH 6.5, 37° C., 30 minutes, substrate 4MBTC; for Inhibitory activity against chitinase derived from Candida albicans, in words: comparison in words. The data set is classed as biochemical, Candida albicans ATCC 10231. On the procedure: The chitinase from Candida albicans (C. albicans) was prepared by the following method. Firstly, a Sabouraud medium (pH 5.6) composed of 4 g of glucose, 1 g of polypeptone and 100 ml of water was prepared and placed in an Erlenmeyer flask of 500 ml volume. After sterilization at 120° C. for 20 minutes, one platinum loop of slant culture cells of C. albicans ATCC 10231 was inoculated into the medium, and then shake cultured at 37° C. for 2 days to obtain a primary seed mother liquor.
In a second procedure, 1 liter of Sabouraud medium having the same composition as above was prepared. Separately, 100 ml of the medium was added to each of ten 500 ml Erlenmeyer flasks, then the flasks and their contents were sterilized at 120° C. for 20 minutes. Thereafter, 2 ml of the primary seed mother liquor described above was added to each flask. The flask was shaken at 37° C. for 2 days to obtain a secondary seed mother liquor.
In a third procedure, 50 liters of Sabouraud medium having the same composition as described above was prepared and added to a culture tank of 100 liter volume. The tank and its contents were sterilized at 120° C. for 30 minutes. In the tank, 1 liter of the secondary seed mother liquor described above was added. Shake culturing was then conducted at 37° C. for 15 hours. At this stage, the stirring velocity was 140 rpm and the aerial rate was 10 l/min. The resulting culture broth was centrifuged by a sharpless centrifuging machine to recover the cells. The wet weight of the thus obtained cells was 250 g.
The cells were suspended in 800 ml of a buffer for cell homogenization (50 mM bis-Tris, 0.25M saccharose, 1 mM disodium ethylenediaminetetraacetate, pH 6.5). The suspension was twice passed through a Dyno-mill disintegrator (beads: MK-2GX, 0.25-0.5 mm) to disrupt the cells, and the supernatant was recovered. The supernatant was centrifuged at 9000 g for 30 minutes, then further super-centrifuged at 152,000 g for an hour. The supernatant thereof was recovered, and was concentrated to about one-fifth of the volume by ultrafiltration (Toyo Ultrafilter UP-20), having an excluding limiting molecular weight of 20,000. The concentrate was used as the crude chitinase solution from Candida albicans in the assay described in procedure (ii) below.
(§1) In a 20 ml vial bottle, 50 μl of the chitinase solution from Candida albicans prepared as described above,s 50 μl of 100 μg/ml aqueous 4-methylumbelliferyl β-D-N,N',N"-triacetyl-chitotrioside (hereinafterabbreviated as 4MBTC, SIGMA Co.), 75 μl of 50 mM bis-Tris buffer (pH 6.5) and 25 μl of 0.1N acetic acid were added and mixed. The reaction was carried out at 37° C. for 30 minutes. As a blank, the reaction was carried out in an identical manner, substituting 50 mM bis-Tris buffer (pH 6.5) for the enzyme solution. After the reaction, sufficient 0.5M glycine-sodium hydroxide buffer (pH 10.4) was added to make the total volume 5 ml. Then, the fluorescent intensity was determined with a fluorophotometer (manufactured by Hitachi Ltd., MPF-4). The excited wavelength was 350 nm, and the fluorescent wavelength was 400 nm. Chitinase activity was determined using the difference in the fluorescent intensity between the read-out data from the sample containing the enzyme and the blank read-out data.
(§2) In determining the inhibitory activity of AJI9463A, AJI9463B, AJI9463C, and the partially hydrolyzed disaccharides thereof, each compound was dissolved in 0.1N acetic acid, and 25 μl of the compound solution was substituted for the 25 μl of 0.1N acetic acid in the reaction system described above. Further, in determining the inhibitory activity against the chitinases of baker's yeast and Trichoderma sp., the assay was performed by changing the buffer in the reaction system described above from 50 mM bis-Tris buffer (pH 6.5) to 0.1M citrate buffer (pH 3.0) and MclLvanine buffer (pH 5.2), respectively.

Data set [2] addresses chitinase from Trichoderma sp. (Chitinase T-1). The data set is described as follows: Assay for chitinase inhibitory activity, chitinase from Trichoderma sp. The data set is classed as biochemical. As to conditions: McIlvaine buffer pH 5.2, substrate 4MBTC. On the procedure:
The chitinase from Trichoderma sp. was provided for use in the assay described in procedure (ii) below by diluting commercially available Chitinase T-1 (manufactured by Asahi Industry Co., Ltd.) with MclIvanine buffer (obtained by adding 0.2M aqueous disodium hydrogen phosphate to 0.1M aqueous citric acid and adjusting the pH to 5.2) to a concentration of 50 μg/ml.
as §1, §2

The subject of data set [3] is silkworm-derived chitinase. As to conditions: background statement; cited from earlier work.
Data set [4] deals with endo-type chitinase of insects. As to conditions: background statement; cited from earlier work.
In the next data set the test system is fungi-derived chitinase. As to conditions: background statement; cited from earlier work.
Data set [5] has as its target T1, chitinase from baker's yeast (S cerevisiae) (Saccharomyces cerevisiae, UniProt P29029).
T1 construct: was shaken at 30° C. for 2 hours at 120 spm to extract the enzyme; host or cells: commercial baker's yeast, digitonin extract
T1 sequence (P29029 21-562): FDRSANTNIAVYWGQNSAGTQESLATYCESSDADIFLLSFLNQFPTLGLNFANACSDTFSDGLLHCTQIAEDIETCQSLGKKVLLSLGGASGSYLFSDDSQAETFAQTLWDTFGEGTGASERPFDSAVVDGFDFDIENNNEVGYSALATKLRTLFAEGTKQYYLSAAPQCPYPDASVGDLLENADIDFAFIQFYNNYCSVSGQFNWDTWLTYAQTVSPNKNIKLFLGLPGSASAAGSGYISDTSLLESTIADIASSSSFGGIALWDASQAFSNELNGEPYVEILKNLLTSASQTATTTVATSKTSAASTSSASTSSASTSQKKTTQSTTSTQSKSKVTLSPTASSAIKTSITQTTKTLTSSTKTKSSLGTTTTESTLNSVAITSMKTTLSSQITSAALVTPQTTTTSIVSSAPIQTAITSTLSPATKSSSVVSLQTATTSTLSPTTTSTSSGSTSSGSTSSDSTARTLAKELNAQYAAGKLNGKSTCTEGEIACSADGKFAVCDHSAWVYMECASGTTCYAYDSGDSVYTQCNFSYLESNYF
Kind of data set: Assay for chitinase inhibitory activity, chitinase from baker's yeast. As to conditions: 0.1M citrate buffer pH 3.0, substrate 4MBTC. The data set is classed as biochemical. On the procedure:
The chitinase from baker's yeast (S cerevisiae) was prepared by the following method. Firstly, 400 g of baker's yeast (manufactured by Kanegafuchi Chemical Industry Co., Ltd.) was suspended in buffer for enzyme extraction (0.1% digitonin: manufactured by Wako Pure Chemical Industry Co., Ltd.), 0.1% β-mercaptoethanol and 2 liters of 25 mM MES (manufactured by Nakarai Chemical Co., Ltd.), and was shaken at 30° C. for 2 hours at 120 spm to extract the enzyme. The extract was centrifuged at 12,000 g for 10 minutes and the supernatant was recovered. The supernatant was concentrated to about one-fifth of the volume by ultrafiltration (UP-20). After 800 ml of sodium citrate buffer (obtained by adding 0.15M aqueous sodium citrate to 0.15M aqueous citric acid, and adjusting the pH to 3.0) was added to the concentrate, the precipitates were removed by centrifugation (0° C., 12,000 g, 10 minutes). The supernatant was again concentrated by ultrafiltration (UP-20) to about 80 ml. The resulting concentrate was used as the chitinase from baker's yeast in the assay described in procedure (ii) below.
as §1, §2

Data set [6] concerns Candida albicans (ATCC 10231). Kind of data set: Effects on growth of Candida albicans. Format: cell-based. As to conditions: 50 μg/ml, Sabouraud dextrose medium, 37° C., 6 and 9 hours after inoculation, microscopic observation. On the procedure:
Samples of Candida albicans (ATCC 10231) were precultured in Sabouraud dextrose medium. Each of seven large test tubes containing 5 ml of Sabouraud dextrose medium were charged, respectively, with 50 μg/ml of AJI9463A, AJI9463B, AJI9463C, and the partially hydrolyzed disaccharides thereof and medium containing no active inhibitory component. The preculture was then inoculated into the media in the test tubes. The test tubes were capped with a cotton stopper, and incubated at 37° C. at 120 spm. The change in the subsequent culture with respect to time was observed. Observations were made microscopically, sampling the medium at the time when the culture started, and 6 and 9 hours thereafter.

Data set [7] concerns mouse ascites breast cancer cells FM3A. Kind of data set: Cytotoxicity, mouse ascites breast cancer cells FM3A. The data set is classed as cell-based. As to conditions: 1 mg/ml, 37° C., 4 days, microscopic observation. On the procedure: Six separate samples of mouse ascites breast cancer cells FM3A, inoculated in Dulbeccol's modified MEM medium supplemented with 10% calf fetal serum (1×10^5 counts/ml) were prepared, and AJI9463A, AJI9463B, AJI9463C and each of the partially hydrolyzed disaccharides thereof were respectively added thereto, resulting in a concentration of 1 mg/ml. Stationary culture was conducted at 37° C. for 4 days. The cultured mouse ascites breast cancer cells FM3A were observed microscopically.

The subject of data set [8] is human leukemia cells K562. Kind of data set: Cytotoxicity, human leukemia cells K562. Format: cell-based. As to conditions: 1 mg/ml, 37° C., 4 days, microscopic observation. On the procedure:
Six separate samples of human leukemia cells K562, inoculated in RPMI 1640 medium supplemented with 10% calf fetal serum (1×10^5 counts/ml) were prepared, and AJI9463A, AJI9463B, AJI9463C and each of the partially hydrolyzed disaccharides thereof were respectively added thereto, resulting in a concentration of 1 mg/ml. Stationary culture was conducted at 37° C. for 4 days. The human leukemia cell K562 culture was observed microscopically.

The structures appear in SMILES notation. pIC50: −log10 of the molar value.

With `CC(=O)N[C@H]1[C@H](O[C@H]2[C@@H](O)[C@@H](NC(C)=O)[C@H](O[C@H]3[C@H](O)[C@H]4N=C(N(C)C)O[C@H]4[C@@H]3CO)O[C@@H]2CO)O[C@H](CO)[C@@H](O)[C@H]1O` [Allosamidin, allosamidin], the “Chitinase Inhibitory Activity IC50, C. albicans” value in data set [1] turned out to be 6.2 µg/mL. Besides, in data set [2], the “Chitinase Inhibitory Activity IC50, Trichoderma sp.” value was 0.8 µg/mL. Also, the “Inhibition of silkworm-derived chitinase” value in [3] was “inhibitors”. For the same molecule, the “Inhibition of endo-type chitinase of insects” value in [4] is reported as “strongly inhibit”. Further, the “Inhibitory activity against fungi-derived chitinase” value in the data set with fungi-derived chitinase is reported as “weak inhibitory activity”.

Turning to `CNC1=NC2C(O)C(O[C@@H]3O[C@H](CO)[C@@H](O[C@@H]4O[C@H](COC)[C@@H](O)[C@@H](O)[C@H]4NC(C)=O)[C@@H](O)[C@H]3NC(C)=O)C(CO)C2O1` (some centres unmarked) [AJI9463A], in [1], the “Chitinase Inhibitory Activity IC50, C. albicans” value came to 0.6 µg/mL and the “Inhibitory activity against chitinase derived from Candida albicans, in words” value (from here on “Inhibitory activity … in words”) is given as “most potent inhibitory activity of any known compound”. Moreover, the pIC50 (commonly the IC50 on a negative log10 scale, so that one unit is a factor of ten) in [5] is 6.19. Also, in [2], the “Chitinase Inhibitory Activity IC50, Trichoderma sp.” value was 1.3 µg/mL. Further, the “Fungal growth of Candida albicans” value in data set [6] is listed as “somewhat inhibited”. The “Growth inhibition of mouse ascites breast cancer cells FM3A (cytotoxicity)” value in [7] was “No growth inhibition was noted at all”. Further, the “Growth inhibition of human leukemia cells K562 (cytotoxicity)” value in [8] is given as “No growth inhibition was noted at all”.

For the molecule `CNC1=NC2C(O)C(O[C@@H]3O[C@H](CO)[C@@H](O)[C@@H](O)[C@H]3NC(C)=O)C(CO)C2O1` (some centres unmarked), in data set [1], the “Chitinase Inhibitory Activity IC50, C. albicans” value amounted to 0.9 µg/mL. In data set [5], this molecule had a pIC50 below 3.31. The “Chitinase Inhibitory Activity IC50, Trichoderma sp.” value in data set [2] was above 50.0 µg/mL.

In the case of `CNC1=NC2C(O)C(O[C@@H]3O[C@H](CO)[C@@H](O[C@@H]4O[C@H](COC)[C@@H](O)[C@@H](O)[C@H]4NC(C)=O)[C@H](O)[C@H]3NC(C)=O)C(CO)C2O1` (some centres unmarked) [AJI9463B], in data set [1], the “Chitinase Inhibitory Activity IC50, C. albicans” value is 0.8 µg/mL; the “Inhibitory activity … in words” value was “superior to that of allosamidin and methylallosamidin”. For the same molecule, in data set [5], the pIC50 is 6.10. In data set [2], the “Chitinase Inhibitory Activity IC50, Trichoderma sp.” value came to 1.6 µg/mL. In addition, the “Fungal growth of Candida albicans” value in [6] was “somewhat inhibited”. In addition, in data set [7], the “Growth inhibition of mouse ascites breast cancer cells FM3A (cytotoxicity)” value is listed as “No growth inhibition was noted at all”. In addition, the “Growth inhibition of human leukemia cells K562 (cytotoxicity)” value in data set [8] was “No growth inhibition was noted at all”.

Regarding `CC(=O)N[C@H]1[C@H](OC2C(O)C3N=C(N(C)C)OC3C2CO)O[C@H](CO)[C@@H](O)[C@@H]1O` (some centres unmarked), in [1], the “Chitinase Inhibitory Activity IC50, C. albicans” value came to 1.3 µg/mL. Also, the pIC50 in [5] is below 3.32. In addition, the “Chitinase Inhibitory Activity IC50, Trichoderma sp.” value in [2] was above 50.0 µg/mL.

As for `CNC1=NC2C(O)C(O[C@@H]3O[C@H](CO)[C@@H](O)[C@H](O)[C@H]3NC(C)=O)C(CO)C2O1` (some centres unmarked), the “Chitinase Inhibitory Activity IC50, C. albicans” value in data set [1] is 1.0 µg/mL. The same molecule had a pIC50 in data set [5] below 3.31. In data set [2], the “Chitinase Inhibitory Activity IC50, Trichoderma sp.” value was above 50.0 µg/mL.

Regarding `COC[C@H]1O[C@@H](O[C@H]2[C@H](O)[C@@H](NC(C)=O)[C@H](OC3C(O)C4N=C(N(C)C)OC4C3CO)O[C@@H]2CO)[C@H](NC(C)=O)[C@H](O)[C@@H]1O` (some centres unmarked) [AJI9463C], in data set [1], the “Chitinase Inhibitory Activity IC50, C. albicans” value was found to be 3.4 µg/mL; the “Inhibitory activity … in words” value was “superior to that of allosamidin and methylallosamidin”. In addition, the pIC50 in data set [5] was 4.31. For the same molecule, the “Chitinase Inhibitory Activity IC50, Trichoderma sp.” value in data set [2] was 0.8 µg/mL. The “Fungal growth of Candida albicans” value in [6] was “somewhat inhibited”. Further, in data set [7], the “Growth inhibition of mouse ascites breast cancer cells FM3A (cytotoxicity)” value is “No growth inhibition was noted at all”. Moreover, in [8], the “Growth inhibition of human leukemia cells K562 (cytotoxicity)” value is “No growth inhibition was noted at all”.

(Values after US5413991A (Ajinomoto Co., Inc., priority 1991, dated 1995).)
